Source: patent US11590139B2, “Substituted aminopurine compounds, compositions thereof, and methods of treatment therewith” (Signal Pharmaceuticals, LLC, priority 2014, dated 2023)

System: Lox-IMVI melanoma cell line
Experiment: Lox-IMVI anti-proliferative assay (growth inhibition, Cell Titer-Glo)
Type: cell-based, human
Settings: Homo sapiens; IC50 activity level in the cell-based Lox-IMVI anti-proliferative assay; read-out: Activity
Summary of the method: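 RPMI/10% FBS; cmpd 0.5 nM–10 μM, 3-fold ×10, duplicate, 0.2% DMSO final; 72 h, 37 °C, 5% CO2. ATP-luminescence readout at t0 and 72 h. IC50 = 50% of DMSO control, 4-parameter logistic fit.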

| IC50 | Compound |
| --- | --- |
| > 1 µM | NC(=O)[C@H]1CC[C@@H](n2c(Nc3cc(Cl)ccc3F)nc3cnc(N[C@H]4COC[C@@H]4O)nc32)CC1 [Example 320, (1R,4s)-4-(8-(5-chloro-2-fluorophenylamino)-2-((3S,4R)-4-hydroxytetrahydrofuran-3-ylamino)-9H-purin-9-yl)cyclohexanecarboxamide] |
| > 1 µM | NC(=O)[C@H]1CC[C@@H](n2c(Nc3cc(F)c(Cl)cc3F)nc3cnc(N[C@@H]4COC[C@H]4O)nc32)CC1 [Example 321, (1S,4s)-4-(8-(4-chloro-2,5-difluorophenylamino)-2-((3R,4S)-4-hydroxytetrahydrofuran-3-ylamino)-9H-purin-9-yl)cyclohexanecarboxamide] |
| > 1 µM | NC(=O)[C@H]1CC[C@@H](n2c(Nc3c(F)cc(Cl)cc3F)nc3cnc(N[C@H]4C[C@@H](O)C4)nc32)CC1 [Example 322, (1s,4s)-4-(8-(4-chloro-2,6-difluorophenylamino)-2-((1s,3s)-3-hydroxycyclobutylamino)-9H-purin-9-yl)cyclohexanecarboxamide] |
| > 1 µM | NC(=O)[C@H]1CC[C@@H](n2c(Nc3c(Cl)cc(Cl)cc3Cl)nc3cnc(N[C@H]4C[C@@H](O)C4)nc32)CC1 [Example 323, (1s,4s)-4-(2-((1s,3s)-3-hydroxycyclobutylamino)-8-(2,4,6-trichlorophenylamino)-9H-purin-9-yl)cyclohexanecarboxamide] |
| > 1 µM | NC(=O)[C@H]1CC[C@@H](n2c(Nc3c(F)cc(Cl)cc3Cl)nc3cnc(N[C@H]4C[C@@H](O)C4)nc32)CC1 [Example 324, (1s,4s)-4-(8-(2,4-dichloro-6-fluorophenylamino)-2-((1s,3s)-3-hydroxycyclobutylamino)-9H-purin-9-yl)cyclohexanecarboxamide] |
| > 1 µM | NC(=O)[C@H]1CC[C@@H](n2c(Nc3c(F)cccc3Cl)nc3cnc(N[C@H]4CC[C@H](O)C4)nc32)CC1 [Example 325, (1R,4s)-4-(8-(2-chloro-6-fluorophenylamino)-2-((1S,3S)-3-hydroxycyclopentylamino)-9H-purin-9-yl)cyclohexanecarboxamide] |
| > 1 µM | NC(=O)[C@H]1CC[C@@H](n2c(Nc3c(F)cccc3F)nc3cnc(N[C@H]4CC[C@H](O)C4)nc32)CC1 [Example 326, (1R,4s)-4-(8-(2,6-difluorophenylamino)-2-((1S,3S)-3-hydroxycyclopentylamino)-9H-purin-9-yl)cyclohexanecarboxamide] |
| 0.5 to 1 µM | NC(=O)[C@H]1CC[C@@H](n2c(Nc3c(Cl)cccc3Cl)nc3cnc(N[C@H]4CC[C@H](O)C4)nc32)CC1 [Example 327, (1R,4s)-4-(8-(2,6-dichlorophenylamino)-2-((1S,3S)-3-hydroxycyclopentylamino)-9H-purin-9-yl)cyclohexanecarboxamide] |
| > 1 µM | NC(=O)[C@H]1CC[C@@H](n2c(Nc3c(F)cc(Cl)cc3F)nc3cnc(N[C@@H]4CC[C@H](O)C4)nc32)CC1 [Example 328, (1S,4s)-4-(8-(4-chloro-2,6-difluorophenylamino)-2-((1R,3S)-3-hydroxycyclopentylamino)-9H-purin-9-yl)cyclohexanecarboxamide] |
| 0.5 to 1 µM | NC(=O)[C@H]1CC[C@@H](n2c(Nc3c(F)cc(Cl)cc3F)nc3cnc(N[C@H]4CC[C@H](O)C4)nc32)CC1 [Example 329, (1R,4s)-4-(8-(4-chloro-2,6-difluorophenylamino)-2-((1S,3S)-3-hydroxycyclopentylamino)-9H-purin-9-yl)cyclohexanecarboxamide] |
| 0.5 to 1 µM | NC(=O)[C@H]1CC[C@@H](n2c(Nc3c(Cl)cc(Cl)cc3Cl)nc3cnc(N[C@H]4CC[C@H](O)C4)nc32)CC1 [Example 330, (1R,4s)-4-(2-((1S,3S)-3-hydroxycyclopentylamino)-8-(2,4,6-trichlorophenylamino)-9H-purin-9-yl)cyclohexanecarboxamide] |
| > 1 µM | NC(=O)[C@H]1CC[C@@H](n2c(Nc3c(F)cc(F)cc3F)nc3cnc(N[C@H]4CC[C@H](O)C4)nc32)CC1 [Example 331, (1R,4s)-4-(2-((1S,3S)-3-hydroxycyclopentylamino)-8-(2,4,6-trifluorophenylamino)-9H-purin-9-yl)cyclohexanecarboxamide] |
| > 1 µM | NC(=O)[C@H]1CC[C@@H](n2c(Nc3c(F)cc(F)cc3F)nc3cnc(N[C@@H]4CC[C@H](O)C4)nc32)CC1 [Example 332, (1S,4s)-4-(2-((1R,3S)-3-hydroxycyclopentylamino)-8-(2,4,6-trifluorophenylamino)-9H-purin-9-yl)cyclohexanecarboxamide] |
| 0.5 to 1 µM | NC(=O)[C@H]1CC[C@@H](n2c(Nc3c(Cl)cc(Cl)cc3Cl)nc3cnc(N[C@@H]4CC[C@H](O)C4)nc32)CC1 [Example 333, (1S,4s)-4-(2-((1R,3S)-3-hydroxycyclopentylamino)-8-(2,4,6-trichlorophenylamino)-9H-purin-9-yl)cyclohexanecarboxamide] |
| 0.5 to 1 µM | CC[C@H](C)Nc1ncc2nc(Nc3c(F)cc(F)cc3F)n([C@H]3CC[C@@H](C(N)=O)CC3)c2n1 [Example 334, (1R,4s)-4-(2-(sec-butylamino)-8-(2,4,6-trifluorophenylamino)-9H-purin-9-yl)cyclohexanecarboxamide] |
| > 1 µM | CC[C@H](C)Nc1ncc2nc(Nc3c(F)cccc3F)n([C@H]3CC[C@@H](C(N)=O)CC3)c2n1 [Example 335, (1R,4s)-4-(2-(sec-butylamino)-8-(2,6-difluorophenylamino)-9H-purin-9-yl)cyclohexanecarboxamide] |
| > 1 µM | CC[C@H](C)Nc1ncc2nc(Nc3c(Cl)cccc3Cl)n([C@H]3CC[C@@H](C(N)=O)CC3)c2n1 [Example 336, (1R,4s)-4-(2-(sec-butylamino)-8-(2,6-dichlorophenylamino)-9H-purin-9-yl)cyclohexanecarboxamide] |
| > 1 µM | CC[C@H](C)Nc1ncc2nc(Nc3c(F)cccc3Cl)n([C@H]3CC[C@@H](C(N)=O)CC3)c2n1 [Example 337, (1R,4s)-4-(2-(sec-butylamino)-8-(2-chloro-6-fluorophenylamino)-9H-purin-9-yl)cyclohexanecarboxamide] |
| 0.5 to 1 µM | CC[C@H](C)Nc1ncc2nc(Nc3c(F)cc(F)cc3Cl)n([C@H]3CC[C@@H](C(N)=O)CC3)c2n1 [Example 338, (1R,4s)-4-(2-(sec-butylamino)-8-(2-chloro-4,6-difluorophenylamino)-9H-purin-9-yl)cyclohexanecarboxamide] |
| 0.5 to 1 µM | CC[C@H](C)Nc1ncc2nc(Nc3c(F)cc(Cl)cc3Cl)n([C@H]3CC[C@@H](C(N)=O)CC3)c2n1 [Example 339, (1R,4s)-4-(2-(sec-butylamino)-8-(2,4-dichloro-6-fluorophenylamino)-9H-purin-9-yl)cyclohexanecarboxamide] |
| > 1 µM | CCC(C)Nc1ncc2nc(Nc3c(F)ccc(Cl)c3F)n([C@H]3CC[C@@H](C(N)=O)CC3)c2n1 (stereo partly drawn) [Example 340, (1R,4s)-4-(2-(sec-butylamino)-8-(3-chloro-2,6-difluorophenylamino)-9H-purin-9-yl)cyclohexanecarboxamide] |
| > 1 µM | C[C@@H]1CC[C@@H](Nc2ncc3nc(Nc4c(F)cc(F)cc4F)n([C@H]4CC[C@@H](C(N)=O)CC4)c3n2)C[C@H]1O [Example 341, (1S,4s)-4-(2-((1R,3R,4R)-3-hydroxy-4-methylcyclohexylamino)-8-(2,4,6-trifluorophenylamino)-9H-purin-9-yl)cyclohexanecarboxamide] |
| > 1 µM | C[C@@H]1CC[C@@H](Nc2ncc3nc(Nc4c(F)cccc4Cl)n([C@H]4CC[C@@H](C(N)=O)CC4)c3n2)C[C@H]1O [Example 342, (1S,4s)-4-(8-(2-chloro-6-fluorophenylamino)-2-((1R,3R,4R)-3-hydroxy-4-methylcyclohexylamino)-9H-purin-9-yl)cyclohexanecarboxamide] |
| > 1 µM | C[C@@H]1CC[C@@H](Nc2ncc3nc(Nc4c(F)cccc4F)n([C@H]4CC[C@@H](C(N)=O)CC4)c3n2)C[C@H]1O [Example 343, (1S,4s)-4-(8-(2,6-difluorophenylamino)-2-((1R,3R,4R)-3-hydroxy-4-methylcyclohexylamino)-9H-purin-9-yl)cyclohexanecarboxamide] |
| > 1 µM | C[C@@H]1CC[C@@H](Nc2ncc3nc(Nc4c(F)cc(F)cc4Cl)n([C@H]4CC[C@@H](C(N)=O)CC4)c3n2)C[C@H]1O [Example 344, (1S,4s)-4-(8-(2-chloro-4,6-difluorophenylamino)-2-((1R,3R,4R)-3-hydroxy-4-methylcyclohexylamino)-9H-purin-9-yl)cyclohexanecarboxamide] |
| > 1 µM | C[C@@H]1CC[C@@H](Nc2ncc3nc(Nc4c(Cl)cccc4Cl)n([C@H]4CC[C@@H](C(N)=O)CC4)c3n2)C[C@H]1O [Example 345, (1S,4s)-4-(8-(2,6-dichlorophenylamino)-2-((1R,3R,4R)-3-hydroxy-4-methylcyclohexylamino)-9H-purin-9-yl)cyclohexanecarboxamide] |
| 0.25 to 0.5 µM | C[C@@H]1CC[C@@H](Nc2ncc3nc(Nc4c(F)cc(Cl)cc4Cl)n([C@H]4CC[C@@H](C(N)=O)CC4)c3n2)C[C@H]1O [Example 346, (1S,4s)-4-(8-(2,4-dichloro-6-fluorophenylamino)-2-((1R,3R,4R)-3-hydroxy-4-methylcyclohexylamino)-9H-purin-9-yl)cyclohexanecarboxamide] |
| > 1 µM | NC(=O)[C@H]1CC[C@@H](n2c(Nc3c(F)cc(F)cc3F)nc3cnc(N[C@@H]4CCC[C@H](O)C4)nc32)CC1 [Example 347, (1S,4s)-4-(2-((1R,3S)-3-hydroxycyclohexylamino)-8-(2,4,6-trifluorophenylamino)-9H-purin-9-yl)cyclohexanecarboxamide] |
| > 1 µM | NC(=O)[C@H]1CC[C@@H](n2c(Nc3c(F)cccc3F)nc3cnc(N[C@@H]4CCC[C@H](O)C4)nc32)CC1 [Example 348, (1S,4s)-4-(8-(2,6-difluorophenylamino)-2-((1R,3S)-3-hydroxycyclohexylamino)-9H-purin-9-yl)cyclohexanecarboxamide] |
